Laboratory results reported in ChEMBL document CHEMBL3585308, “Discovery and Modification of in Vivo Active Nrf2 Activators with 1,2,4-Oxadiazole Core: Hits Identification and Structure-Activity Relationship Study” (J Med Chem, 2015).

Key:
Format in all cases: cell-based
[1] = target: T1, Nuclear factor erythroid 2-related factor 2 (Homo sapiens) (UniProt Q16236); assay: Activation of Nrf2 in human HepG2-ARE-C8 cells assessed as upregulation of ARE level at 40 uM after 12 hrs by luciferase reporter gene assay relative to control
T1 sequence (whole entry): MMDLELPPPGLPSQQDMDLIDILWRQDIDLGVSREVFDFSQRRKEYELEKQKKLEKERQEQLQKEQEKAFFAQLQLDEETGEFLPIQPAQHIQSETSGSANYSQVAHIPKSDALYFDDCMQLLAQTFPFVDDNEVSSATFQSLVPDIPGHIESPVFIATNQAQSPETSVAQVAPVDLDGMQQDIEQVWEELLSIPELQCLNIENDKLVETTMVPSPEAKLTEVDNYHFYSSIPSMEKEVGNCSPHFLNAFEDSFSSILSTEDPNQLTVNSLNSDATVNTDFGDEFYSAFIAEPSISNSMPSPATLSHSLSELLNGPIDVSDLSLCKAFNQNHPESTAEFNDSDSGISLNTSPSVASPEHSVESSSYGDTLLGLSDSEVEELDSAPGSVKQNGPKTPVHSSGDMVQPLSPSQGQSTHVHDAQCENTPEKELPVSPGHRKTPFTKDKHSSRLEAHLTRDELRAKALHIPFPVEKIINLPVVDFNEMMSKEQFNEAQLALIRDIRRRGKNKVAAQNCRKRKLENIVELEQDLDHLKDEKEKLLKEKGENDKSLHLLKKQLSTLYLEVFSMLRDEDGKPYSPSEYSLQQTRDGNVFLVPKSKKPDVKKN

[2] = target: T1, Nuclear factor erythroid 2-related factor 2 (Homo sapiens); assay: Activation of Nrf2 in human HepG2-ARE-C8 cells assessed as upregulation of ARE level at 80 uM after 12 hrs by luciferase reporter gene assay relative to control
[3] = target: T1, Nuclear factor erythroid 2-related factor 2 (Homo sapiens); assay: Activation of Nrf2 in human HepG2-ARE-C8 cells assessed as upregulation of ARE level at 160 uM after 12 hrs by luciferase reporter gene assay relative to control
[4] = system: HCT-116; assay: Cytotoxicity against human HCT116 cells assessed as reduction of cell proliferation at 80 uM after 24 hrs by MTT assay; conditions: hct-116, 24 h
[5] = target: T1, Nuclear factor erythroid 2-related factor 2 (Homo sapiens); assay: Activation of Nrf2 in human HepG2-ARE-C8 cells assessed as upregulation of ARE level at 20 uM after 12 hrs by luciferase reporter gene assay relative to control
[6] = target: T1, Nuclear factor erythroid 2-related factor 2 (Homo sapiens); assay: Activation of Nrf2 in human HepG2-ARE-C8 cells assessed as upregulation of ARE level at 0.2 uM after 12 hrs by luciferase reporter gene assay relative to control
[7] = target: T1, Nuclear factor erythroid 2-related factor 2 (Homo sapiens); assay: Activation of Nrf2 in human HepG2-ARE-C8 cells assessed as upregulation of ARE level at 0.02 uM after 12 hrs by luciferase reporter gene assay relative to control
[8] = target: T1, Nuclear factor erythroid 2-related factor 2 (Homo sapiens); assay: Activation of Nrf2 in human HepG2-ARE-C8 cells assessed as upregulation of ARE level at 2 uM after 12 hrs by luciferase reporter gene assay relative to control

Row | SMILES | fold change (FC) [1] | fold change (FC) [2] | fold change (FC) [3] | Activity [4] | fold change (FC) [5] | fold change (FC) [6] | fold change (FC) [7] | fold change (FC) [8]
1 | COc1ccc(-c2nc(-c3ccc4nc[nH]c4c3)no2)c(OC)c1 | 11.6 | 4.35 | 1.46 | Non-toxic | 8.57 | 1.59 | 1.25 | 2.84
2 | N#Cc1cccc(-c2nc(-c3ccc4nc[nH]c4c3)no2)c1 | 0.91 | 3.16 | 8.05 | Non-toxic | 0.87 | 1.36 | 1.26 | 1.42
3 | c1cc2ccc(-c3nc(-c4ccc5nc[nH]c5c4)no3)cc2[nH]1 | 11 | 11.6 | 8.88 | Non-toxic | 10.2 | 1.5 | 1.22 | 1.77
4 | Cn1cnc2ccc(-c3noc(-c4ccc5ccccc5c4)n3)cc21 | 1.45 | 1.37 | 2.44 | Non-toxic | 1.39 | 1.4 | 1.44 | 1.43
5 | N#Cc1ccccc1-c1nc(-c2ccc3nc[nH]c3c2)no1 | 1.32 | 1.39 | 2.09 | Non-toxic | 1.33 | 1.48 | 1.36 | 2.46
6 | Cc1ccccc1-c1nc(-c2ccc3nc[nH]c3c2)no1 | 10.8 | 18.5 | 7.85 | Non-toxic | 10.9 | 1.59 | 1.4 | 3.52
7 | c1ccc2nc(-c3nc(-c4ccc5nc[nH]c5c4)no3)ccc2c1 | 16.9 | 6.61 | 7.09 | Non-toxic | 20.5 | 2.04 | 1.61 | 4.35
8 | Oc1ccccc1-c1nc(-c2ccc3nc[nH]c3c2)no1 | 2.75 | 1.34 | 1.17 | Non-toxic | 2.67 | 1.54 | 1.72 | 1.53
9 | CC(C)(C)C1=CC(=O)C=CC1=O | 2.14 | 5.27 | 8.46 | – | 1.41 | 1.25 | 1.18 | 1.24
10 | COc1cc(-c2nc(-c3ccc4nc[nH]c4c3)no2)cc(OC)c1OC | 3.24 | 13.9 | 22.5 | Non-toxic | 3.23 | 2.24 | 1.31 | 2.41
11 | Cc1ccc(-c2nc(-c3ccc4nc[nH]c4c3)no2)cc1 | 16.6 | 12.7 | 9.22 | Non-toxic | 20.6 | 3.29 | 2.11 | 7.78
12 | N#Cc1ccc(-c2nc(-c3ccc4nc[nH]c4c3)no2)cc1 | 11.9 | 10 | 12.7 | Non-toxic | 8.12 | 1.25 | 1.22 | 1.35
13 | FC(F)(F)c1cccc(-c2nc(-c3ccc4nc[nH]c4c3)no2)c1 | 5.65 | 3.45 | 2.94 | Non-toxic | 10.5 | 8.04 | 2.56 | 13.9
14 | c1ccc(-c2nc(-c3ccc4nc[nH]c4c3)no2)nc1 | 7.51 | 2.65 | 2.55 | Non-toxic | 9.49 | 3.42 | 1.06 | 5.09
15 | COc1ccc(-c2nc(-c3ccc4nc[nH]c4c3)no2)cc1 | 13 | 4.92 | 5.52 | Non-toxic | 9.84 | 2.72 | 1.43 | 3.27
16 | c1ccc(-c2ccc(-c3nc(-c4ccc5nc[nH]c5c4)no3)cc2)cc1 | 10.7 | 15 | 11 | Non-toxic | 2 | 1.54 | 1.18 | 1.52
17 | Oc1cccc(-c2nc(-c3ccc4nc[nH]c4c3)no2)c1 | 4.18 | 4.05 | 3.93 | Non-toxic | 8.62 | 1.71 | 1.68 | 2.44
18 | COC(=O)/C=C/C(=O)OC | 2.97 | – | – | – | 1.65 | 1 | 0.82 | 1.1
19 | O=[N+]([O-])c1cccc(-c2nc(-c3ccc4nc[nH]c4c3)no2)c1 | 21.8 | 16.5 | 11.5 | Non-toxic | 11.6 | 1.56 | 1.43 | 4.74
20 | CCCc1ccc(-c2nc(-c3ccc4nc[nH]c4c3)no2)cc1 | 6.16 | 7.79 | 10 | Non-toxic | 6.07 | 1.73 | 1.48 | 2.25
21 | Oc1ccc(-c2nc(-c3ccc4nc[nH]c4c3)no2)cc1 | 8.67 | 8.81 | 7.35 | Non-toxic | 6.23 | 1.65 | 1.56 | 2.19
22 | c1cc(-c2nc(-c3ccc4nc[nH]c4c3)no2)ccn1 | 4.95 | 5.99 | 10.6 | Non-toxic | 4.36 | 2.54 | 1.91 | 4.27
23 | CCc1ccc(-c2nc(-c3ccc4nc[nH]c4c3)no2)cc1 | 5.88 | 4.82 | 3.69 | Non-toxic | 9.34 | 1.75 | 1.37 | 2.56
24 | COc1ccccc1-c1nc(-c2ccc3nc[nH]c3c2)no1 | 10.7 | 8.46 | 5.85 | Non-toxic | 5.96 | 1.39 | 1.24 | 1.62
25 | Cn1cnc2ccc(-c3noc(-c4ccccc4)n3)cc21 | 8.41 | 3.33 | 1.75 | Non-toxic | 17.4 | 3.41 | 2.03 | 18.2
